Measurements from publication PMC5442318, “Hundreds of dual-stage antimalarial molecules discovered by a functional gametocyte screen” (Nature Communications, 2017).
pIC50: −log10 of the molar value. Where two headings read alike, the source gives them in different places.

How the values were obtained:
HepG2 cells = assay: HepG2 cytotoxicity assay; format: cell-based
Outline: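 Steps: equilibrate plates and detection reagent at room temperature (30 min); dispense CellTiter-Glo; allow 10 min at room temperature; record luminescence.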

[1] = tested on: P. falciparum female gametes; assay: Pf FGAA with compounds added 30 min after triggering gametocyte activation (gamete-targeting); format: cell-based, Plasmodium falciparum NF54; settings: 0h incubation time
[2] = tested on: P. falciparum stage V female gametocytes; assay: P. falciparum female gametocyte activation assay (Pf FGAA), 24 h or 48 h preincubation, Pfs25 expression readout; format: cell-based, Plasmodium falciparum NF54; settings: for IC50: 24h incubation time, read-out: Pf FGAA IC50 (µM) 24h; for Pf FGAA classification: SLOW / FAST / GAMETE from activity at 48h, 24h, 0h incubation; for pIC50: mean, read-out: Gametocytes mean Pf FGAA IC50
Outline: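 Purified stage V gametocytes from P. falciparum NF54 gametocyte cultures were exposed to compounds for 24 h or 48 h at 37 °C under 3% O2/5% CO2, then activated by temperature drop plus xanthurenic acid. Activated females were stained with Cy3-anti-Pfs25 (0.5 μg ml^−1) for 24 h at 26 °C and counted by high-content imaging; pIC50 by nonlinear regression.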

[3] = tested on: P. falciparum stages IV–V gametocytes; assay: Gametocytocidal ATP-depletion assay (gametocyte ATP bioluminescence); format: cell-based, Plasmodium falciparum; settings: for inhibition at 2 µM: Plasmodium falciparum, mean
Outline: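 Purified stage IV–V gametocytes (12,500/well) incubated with compound for 48 h at 37 °C under 3% O2/5% CO2. ATP measured by BacTiter-Glo luminescence as a viability surrogate; hits tested at 2 μM single concentration.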

[4] = tested on: P. falciparum asexual blood stages; settings: cited from earlier work; for pIC50: read-out: Pf Asexual blood stages XC50
[5] = TCAMS data, ref 1 (Gamo et al., 2010)
[6] = TCAMS data, ref 1 (Gamo, F. J. et al., Nature 465, 305-310, 2010)
[7] = P. falciparum female gametocytes
[8] = TCAMS asexual blood stage data, ref 1 (Gamo, F. J. et al., Nature 465, 305-310, 2010)
[9] = HepG2 TOX50 versus Pf FGAA IC50
[10] = Plasmodium falciparum, P. falciparum female gametocytes
[11] = P. falciparum female gametocyte activation assay

Compound | HepG2 cells mean TOX50 (HepG2 cells; mean) | Pf FGAA classification [2] | pIC50 [2] | Gametocytes mean ATP inhibition at 2µM (%) [3] | pIC50 [4, 5] | Pf Asexual stages XC50 [4, 6] | Gametocytes mean ATP inhibition at 2µM [3] | pIC50 [4, 8] | further results
CN1CCN(CCCNCc2ccccc2-c2cccc(CNCc3ccc4c(c3)OCO4)c2)CC1.O=C(O)C(F)(F)F [TCMDC-140476] | 1.51 µM | SLOW | 5.79 | -1.87% | 6.10 | 1070 nM |  |  | IC50 [1]: > 20 µM; IC50 [2]: 5.7 µM
Cc1ccc(Cl)c2sc(N3CCN(C(=O)c4ccc([N+](=O)[O-])o4)CC3)nc12 [TCMDC-124311] |  | FAST |  |  |  | 320 nM | -39.73% | 6.49 | HepG2 cells mean TOX50 (HepG2 cells; HepG2 cells; mean): 25.79 µM; IC50 [1]: > 20 µM; IC50 [2]: 1.5 µM; pIC50 [2, 7]: 5.84
Clc1cc(Br)ccc1-c1ccc(CNCC2CCNCC2)o1 [TCMDC-124617] |  | SLOW |  |  |  | 1510 nM |  | 5.82 | Selectivity ratio (HepG2 cells; [9]): 6.08; HepG2 cells mean TOX50 (HepG2 cells; HepG2 cells; mean): 4.37 µM; IC50 ([1]; Plasmodium falciparum): > 20 µM; IC50 ([2]; Plasmodium falciparum): > 20 µM; pIC50 [2, 10]: 6.14; inhibition at 2 µM [3]: -8.62%
CN(C)CCCNCc1ccc(-c2ccc(C(F)(F)F)cc2)cc1 [TCMDC-140011] | 4.90 µM | FAST |  |  | 6.06 | 870 nM |  |  | Selectivity ratio (HepG2 cells; HepG2 TOX50 vs Pf FGAA IC50): 2.92; IC50 ([1]; Plasmodium falciparum): > 20 µM; IC50 ([2]; Plasmodium falciparum): 1.87 µM; pIC50 ([2]; Plasmodium falciparum): 5.77; inhibition at 2 µM [3]: 1.03%
O=C(Nc1ccc([N+](=O)[O-])cc1)Nc1cc(OCC(F)(F)F)cc(OCC(F)(F)F)c1 [TCMDC-124533] |  | SLOW |  |  |  | 470 nM |  | 6.33 | Selectivity ratio (HepG2 cells; [9]): 5.40; HepG2 cells mean TOX50 (HepG2 cells; HepG2 cells; mean): 6.24 µM; IC50 ([1]; Plasmodium falciparum): 5.64 µM; IC50 ([2]; Plasmodium falciparum): 2.32 µM; pIC50 [2, 10]: 5.94; inhibition at 2 µM [3]: -45.2%
CC(C)(CNC(=O)[C@@H]1CCCCN1)c1nc(-c2ccc(Cl)c(O)c2)c(-c2ccncc2)[nH]1.Cl [TCMDC-141079] |  | GAMETE |  |  |  | 840 nM | -6.33% | 6.08 | HepG2 cells mean TOX50 (HepG2 cells; mean; HepG2 cells): 38.91 µM; IC50 [1]: 2.06 µM; IC50 [2]: 2.48 µM; pIC50 [2, 11]: 5.80
N=C(N)Nc1nc(-c2ccc(NCc3ccc(CNc4cccc(-c5csc(NC(=N)N)n5)c4)cc3)cc2)cs1 [TCMDC-140699] | 4.79 µM | GAMETE | 6.05 | 23.62% | 6.51 | 310 nM |  |  | IC50 [1]: 0.89 µM; IC50 [2]: 0.14 µM
CN1CCN(CCCNc2ncc3c(-c4ccc(NC(=O)Nc5cc(C(F)(F)F)ccc5F)c(F)c4)nn(C)c3n2)CC1.O=C(O)C(F)(F)F [TCMDC-141611] |  | SLOW |  |  |  | 860 nM | -15.14% | 6.07 | HepG2 cells mean TOX50 (HepG2 cells; mean; HepG2 cells): 4.90 µM; IC50 [1]: 11.3 µM; IC50 [2]: 11.1 µM; pIC50 [2, 11]: 6.06
CCn1c(-c2nonc2N)nc2c(-c3cccc(NC(=O)Nc4ccc(Cl)cc4)c3)ncc(OCCCN)c21.O=C(O)C(F)(F)F [TCMDC-136152] | 10.96 µM | SLOW | 5.77 | -4.09% | 6.08 | 830 nM |  |  | IC50 [1]: > 20 µM; IC50 [2]: 6.65 µM
COc1ccc2ccccc2c1CNCCCCCCNCc1c(OC)ccc2ccccc12.Cl [TCMDC-137915] | 4.22 µM |  | 6.15 | 20.95% | 6.15 |  |  |  | 
Cl.N=C1C=C(N)C(=O)c2ccccc21 [TCMDC-141992] |  |  |  |  |  |  | 55.55% | 5.98 | HepG2 cells mean TOX50 (HepG2 cells; mean; HepG2 cells): 0.52 µM; pIC50 [2, 11]: 4.93
CC(C)Cn1cc(C2CCN(CCN3CCC(CNC(=O)c4ccc(-c5ccc(C(F)(F)F)cc5)cc4)CC3)CC2)c2ccccc21 [TCMDC-138852] | 4.80 µM |  | 6.06 | 30.37% | 6.12 |  |  |  | 
CC(=O)c1ccc2nc[nH]c(=O)c2c1 [TCMDC-138172] | 6.24 µM |  | 6.01 | 67.05% | 6.14 |  |  |  | 
CCCCSc1c(CNCCCCCCNCc2ccc3ccccc3c2SCCCC)ccc2ccccc12.CS(=O)(=O)O [TCMDC-137825] | 2.76 µM |  | 6.01 | 10.43% | 6.00 |  |  |  | 
CCc1c(CCNCCCCCCNC(C)Cc2ccc3c(c2CC)OCO3)ccc(OC)c1OC.Cl (stereo not shown) [TCMDC-132052] |  |  |  |  |  |  | 35.74% | 6.06 | HepG2 cells mean TOX50 (HepG2 cells; HepG2 cells; mean): 2.46 µM; pIC50 [2, 7]: 6.32
OC1CCN(c2cc(-c3ccccn3)nc(-c3ccccn3)n2)CC1 [TCMDC-123786] |  |  |  |  |  |  | 104.88% | 5.98 | HepG2 cells mean TOX50 (HepG2 cells; HepG2 cells; mean): 14.14 µM; pIC50 [2, 7]: 5.81
Cc1[nH]c(C)c(-c2ccc(CCc3ccc(F)cc3F)cc2)c(=O)c1Cl [TCMDC-135462] |  |  |  |  |  |  | 51.34% | 7.80 | HepG2 cells mean TOX50 (HepG2 cells; HepG2 cells; mean): >100 µM; pIC50 [2, 7]: 4.88
Cc1oc(-c2ccc(Cl)cc2)cc1C(=O)NCCC1CCN(CCCCCNC(=O)/C=C/c2ccc(Cl)c(Cl)c2)CC1 [TCMDC-140009] | 3.31 µM |  | 5.74 | -9.24% | 6.35 |  |  |  | 
Cl.c1ccc2c(NCCCCCCCCCNc3ccnc4ccccc34)ccnc2c1 [TCMDC-137750] | 1.50 µM |  | 6.07 | 35.04% | 6.92 |  |  |  | 
CN(C)CCNCc1ccc(-c2ccc3c(Nc4ccc(Oc5ccccc5)cc4)ccnc3c2)o1 [TCMDC-138399] | 5.69 µM |  | 5.81 | 14.30% | 6.55 |  |  |  | 
Cl.OC(CNCCCCCCNCC(O)c1ccc(Cl)c(Cl)c1)c1ccc(Cl)c(Cl)c1 (stereo not shown) [TCMDC-141987] |  |  |  |  |  |  | 0.38% | 6.04 | HepG2 cells mean TOX50 (HepG2 cells; mean; HepG2 cells): 4.27 µM; pIC50 [2, 11]: 6.05
CC(C)(C)c1ccc(-c2nc3c(ccc4nc(N)nc(N)c43)[nH]2)cc1.Cl [TCMDC-137984] | 2.12 µM |  | 6.59 | 79.78% | 6.80 |  |  |  | 
